Data from patent US6911446B2, “Methods of modulating serine/threonine protein kinase function with quinazoline-based compounds” (Sugen, Inc., priority 1997, dated 2005).
“And” between values parts separate entries of the source, which are not always exact repeats. Identical values can stand only once.

Experiments:
RAF-1 = target: T1, RAF-1 (Homo sapiens, UniProt P04049); experiment: RAF-1 ELISA phosphorylation assay (RAF-catalyzed phosphorylation of MEK and MAPK); assay type: biochemical; conditions: RAF-1 phosphorylation assay, lysates from RAS/RAF infected Sf9 cells, substrates T-MEK and His-MAPK
T1 construct: made in house; host or cells: Sf9 (Spodoptera frugiperda) cells co-infected with RAS and RAF recombinant baculoviruses
T1 sequence (P04049 whole entry): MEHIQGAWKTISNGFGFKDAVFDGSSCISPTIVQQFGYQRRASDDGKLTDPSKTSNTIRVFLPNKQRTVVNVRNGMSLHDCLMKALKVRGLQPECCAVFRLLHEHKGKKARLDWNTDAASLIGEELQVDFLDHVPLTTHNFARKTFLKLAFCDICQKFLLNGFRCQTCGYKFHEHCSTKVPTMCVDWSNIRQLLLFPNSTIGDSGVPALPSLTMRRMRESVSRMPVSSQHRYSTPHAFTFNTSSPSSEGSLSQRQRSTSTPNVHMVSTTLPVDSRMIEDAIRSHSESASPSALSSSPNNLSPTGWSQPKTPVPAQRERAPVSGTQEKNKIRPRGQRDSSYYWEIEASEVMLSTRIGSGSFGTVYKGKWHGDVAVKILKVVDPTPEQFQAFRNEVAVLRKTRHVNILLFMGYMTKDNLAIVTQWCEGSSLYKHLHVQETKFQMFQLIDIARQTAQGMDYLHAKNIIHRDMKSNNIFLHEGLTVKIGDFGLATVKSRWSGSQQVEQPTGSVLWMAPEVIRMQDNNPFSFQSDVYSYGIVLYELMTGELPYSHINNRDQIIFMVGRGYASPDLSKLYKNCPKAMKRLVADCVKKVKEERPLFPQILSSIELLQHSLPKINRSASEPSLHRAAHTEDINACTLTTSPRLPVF
Text: The following assay reports the amount of RAF-catalyzed phosphorylation of its target protein MEK as well as MEK's target MAPK. The RAF gene sequence is described in Bonner et al., 1985, Molec. Cell. Biol. 5: 1400-1407, and is readily accessible in multiple gene sequence data banks. Construction of the nucleic acid vector and cell lines utilized for this portion of the invention are fully described in Morrison et al., 1988, Proc. Natl. Acad. Sci. USA 85: 8855-8859.
• 1. Sf9 (Spodoptera frugiperda) cells; GIBCO-BRL, Gaithersburg, Md. • 2. RIPA buffer: 20 mM Tris/HCl pH 7.4, 137 mM NaCl, 10% glycerol, 1 mM PMSF, 5 mg/L Aprotenin, 0.5% Triton X-100; • 3. Thioredoxin-MEK fusion protein (T-MEK): T-MEK expression and purification by affinity chromatography were performed according to the manufacturer's procedures. Catalog#K 350-01 and R 350-40, Invitrogen Corp., San Diego, Calif. • 4. His-MAPK (ERK 2); His-tagged MAPK was expressed in XL1 Blue cells transformed with pUC18 vector encoding His-MAPK. His-MAPK was purified by Ni-affinity chromatography. Cat#27-4949-01, Pharmacia, Alameda, Calif., as described herein. • 5. Sheep anti mouse IgG: Jackson laboratories, West Grove, Pa. Catalog, #515-006-008, Lot#28563 • 6. RAF-1 protein kinase specific antibody: URP2653 from UBI. • 7. Coating buffer: PBS; phosphate buffered saline, GIBCO-BRL, Gaithersburg, Md. • 8. Wash buffer: TBST-50 mM Tris/HCL pH 7.2, 150 mM NaCl, 0.1% Triton X-100 • 9. Block buffer: TBST, 0.1% ethanolamine pH 7.4 • 10. DMSO, Sigma, St. Louis, Mo. • 11. Kinase buffer (KB): 20 mM Hepes/HC1 pH 7.2, 150 mM NaCl, 0.1% Triton X-100, 1 mM PMSF, 5 mg/L Aprotenin, 75 μM sodium ortho vanadate, 0.5 MM DTT and 10 mM MgCl2. • 12. ATP mix: 100 mM MgCl2, 300 μM ATP, 10 μCi γ-^33P ATP (Dupont-NEN)/mL. • 13 Stop solution: 1% phosphoric acid; Fisher, Pittsburgh, Pa. • 14. Wallac Cellulose Phosphate Filter mats; Wallac, Turku, Finnland. • 15. Filter wash solution: 1% phosphoric acid, Fisher, Pittsburgh, Pa. • 16. Tomtec plate harvester, Wallac, Turku, Finnland. • 17. Wallac beta plate reader #1205, Wallac, Turku, Finnland. • 18. NUNC 96-well V bottom polypropylene plates for compounds Applied Scientific Catalog #AS-72092. Procedure
All of the following steps were conducted at room temperature unless specifically indicated. • 1. ELISA plate coating: ELISA wells are coated with 100 μL of Sheep anti mouse affinity purified antiserum (1 μg/100 μL coating buffer) over night at 4° C. ELISA plates can be used for two weeks when stored at 4° C. • 2. Invert the plate and remove liquid. Add 100 μL of blocking solution and incubate for 30 min. • 3. Remove blocking solution and wash four times with wash buffer. Pat the plate on a paper towel to remove excess liquid. • 4. Add 1 μg of antibody specific for RAF-1 to each well and incubate for 1 hour. Wash as described in step 3. • 5. Thaw lysates from RAS/RAF infected Sf9 cells and dilute with TBST to 10 μg/100 μL. Add 10 μg of diluted lysate to the wells and incubate for 1 hour. Shake the plate during incubation. Negative controls receive no lysate. Lysates from RAS/RAF infected Sf9 insect cells are prepared after cells are infected with recombinant baculoviruses at a MOI of 5 for each virus, and harvested 48 hours later. The cells are washed once with PBS and lysed in RIPA buffer. Insoluble material is removed by centrifugation (5 min at 10,000×g). Aliquots of lysates are frozen in dry ice/ethanol and stored at −80° C. until use. • 6. Remove non-bound material and wash as outlined above (step 3). • 7. Add 2 μg of T-MEK and 2 μg of His-MAEPK per well and adjust the volume to 40 μL with kinase buffer. Methods for purifying T-MEK and MAPK from cell extracts are provided herein by example. • 8. Predilute compounds (stock solution 10 mg/mL DMSO) or extracts 20 fold in TBST plus 1% DMSO. Add 5 μL of the prediluted compounds/extracts to the wells described in step 6. Incubate for 20 min. Controls receive no drug. • 9. […]

Compound | IC50 (RAF-1) | melting point
Nc1ncnc2cccc(Sc3ccccc3)c12 [Compound A-3, 4-Amino-5-phenylthioquinazoline] | 25.6 µM | –
Cc1ccc(Sc2cccc3nc(N)nc(N)c23)cc1 [Compound A-4, 2,4-Diamino-5-(4-methylphenylthio)quinazoline] | > 100 µM | –
Nc1nc(N)c2c(Sc3ccc(Cl)cc3)cccc2n1 [Compound A-5, 2,4-Diamino-5-(4-chlorophenylthio)quinazoline] | > 100 µM | –
Nc1nc(N)c2c(Oc3cccc(C(F)(F)F)c3)cccc2n1 [Compound A-11, 2,4-Diamino-5-(3-trifluoromethylphenoxy)quinazoline] | > 100 µM | –
Nc1nc(-c2ccccc2)nc2cccc(Oc3ccccc3)c12 [Compound A-12, 4-Amino-2-phenyl-5-phenoxyquinazoline] | > 100 µM | 190 to 191 °C
Nc1ncnc2cccc(Oc3ccc(F)cc3)c12 [Compound A-13, 4-Amino-5-(4-fluorophenoxy)quinazoline] | 0.1 µM | 188 to 190 °C
CN(C)c1cccc(Oc2cccc3nc(N)nc(N)c23)c1 [Compound A-14, 2,4-Diamino-5-(3-dimethylaminophenoxy)quinazoline] | 24.6 µM and 57 µM | –
COc1ccc(Oc2cccc3ncnc(N)c23)cc1 [Compound A-15, 4-Amino-5-(4-methoxyphenoxy)quinazoline] | 0.8 µM | –
Nc1nc(N)c2c(Nc3ccccc3)cccc2n1 [Compound A-35, 2,4-Diamino-5-anilinoquinazoline] | – | 279 to 283 °C (dec.)
